Measured values published in US20170253601A1, “Substituted Pyrrolidine Compounds” (EPIZYME, INC., priority 2014, published 2017).

Biological target: T1, SMYD2 (Homo sapiens, UniProt Q9NRG4)
T1 construct: Full length SMYD2 (NP 064582.2) was cloned; His6 (N, cleaved yes); FLAG (N); made in house; host or cells: Sf9 insect cells
Test: SMYD2 Biochemical Assay (3H-SAM, biotinylated peptide substrate, Flashplate)
Details: IC50 values are an average of n = 1 to n = 50; read-out: SMYD2 Biochem IC50 (μM)*
Method in brief: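 Full-length His/FLAG-tagged SMYD2 expressed in Sf9 cells with tag cleaved, 1.5 nM, pre-incubated 30 min at room temperature with compound, then 10 nM 3H-SAM and 60 nM biotinylated peptide added. Buffer 20 mM Bicine pH 7.6, 1 mM TCEP, 0.005% BSG, 0.002% Tween20, 2% DMSO. Stopped with 600 uM cold SAM; 3H-peptide captured on streptavidin Flashplate; IC50 by curve fit.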

T1 sequence (Q9NRG4 whole entry): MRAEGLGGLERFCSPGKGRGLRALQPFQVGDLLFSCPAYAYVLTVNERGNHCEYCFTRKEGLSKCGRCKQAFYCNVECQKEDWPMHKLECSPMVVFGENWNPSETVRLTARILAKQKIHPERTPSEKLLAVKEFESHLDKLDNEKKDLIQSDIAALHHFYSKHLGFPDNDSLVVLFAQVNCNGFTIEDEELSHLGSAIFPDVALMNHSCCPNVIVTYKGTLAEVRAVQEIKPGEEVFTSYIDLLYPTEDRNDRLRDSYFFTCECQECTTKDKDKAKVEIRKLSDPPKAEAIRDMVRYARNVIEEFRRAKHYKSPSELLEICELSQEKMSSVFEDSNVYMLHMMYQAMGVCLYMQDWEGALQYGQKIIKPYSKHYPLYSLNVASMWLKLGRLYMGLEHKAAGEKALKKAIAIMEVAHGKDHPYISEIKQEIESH

Row | Structure (SMILES) | IC50 [µM]
1 | CC(C)c1cc(C(=O)N[C@H]2C[C@@H](CNC(=O)C3CCCCC3)N(C3CC3)C2)no1 (racemic) [compound 224, (±)-cis-N-[5-[(cyclohexyl-formamido)methyl]-1-cyclopropylpyrrolidin-3-yl]-5-(propan-2-yl)-1,2-oxazole-3-carboxamide] | > 50
2 | C[C@@H]1CN(C2CCS(=O)(=O)CC2)C[C@H]1NC(=O)c1cc(C2CC2)on1 (racemic) [compound 225, (±)-trans-5-cyclopropyl-N-[1-(1,1-dioxo-1??- thian-4-yl)-4-methyl-pyrrolidin-3-yl]-1,2-oxazole-3-carboxamide] | > 50
3 | CC(C)c1cc(C(=O)N[C@H]2C[C@@H](CNC(=O)c3ccccc3)N(C3CC3)C2)no1 (racemic) [compound 227, (±)-cis-N-[1-cyclo-propyl-5-[(phenyl-formamido)methyl]pyrrolidin-3-yl]-5-(propan-2-yl)-1,2-oxazole-3-carboxamide] | > 50
4 | CC(C)N1C[C@@H](NC(=O)c2cc(C3CC3)on2)C[C@H]1COCC#CC1CCCCC1 (racemic) [compound 239, (±)-cis-N-[5-{[(3-cyclo-hexylprop-2-yn-1-yl)oxy]methyl}-1-(propan-2-yl)pyrrolidin-3-yl]-5-cyclopropyl-1,2-oxazole-3-carboxamide] | > 50
5 | CC(C)N1C[C@@H](NC(=O)c2cc(C3CC3)on2)[C@@](C)(O)C1 (racemic) [compound 241, (±)-cis-5-cyclopropyl-N-[4-hydroxy-4-methyl-1-(propan-2-yl)pyrrolidin-3-yl]-1,2-oxazole-3-carboxamide] | 24.8
6 | CC(C)N1C[C@H](C)[C@H](NC(=O)c2cc(C3CCC3)on2)C1 (racemic) [compound 248, (±)-cis-5-cyclobutyl-N-[4-methyl-1-(propan-2-yl)pyrrolidin-3-yl]-1,2-oxazole-3-carboxamide] | 10.5
7 | CC(C)N1C[C@@H](C)[C@H](NC(=O)c2cc(C3CCC3)on2)C1 (racemic) [compound 249, (±)-trans-5-cyclobutyl-N-[4-methyl-1-(propan-2-yl)pyrrolidin-3-yl]-1,2-oxazole-3-carboxamide] | > 50
8 | CC(C)N1C[C@@H](C)[C@H](NC(=O)c2cc(C3(C)CC3)on2)C1 (racemic) [compound 250, (±)-trans-N-[4-methyl-1-(propan-2-yl)pyrrolidin-3-yl]-5-(1-methylcyclo-propyl)-1,2-oxazole-3-carboxamide] | > 50
9 | CN1C[C@@H](C(F)(F)F)[C@H](NC(=O)c2cc(C3CC3)on2)C1 (racemic) [compound 251, (±)-trans-5-cyclopropyl-N-[1-methyl-4-(trifluoro-methyl)pyrrolidin-3-yl]-1,2-oxazole-3-carboxamide] | > 50
10 | CC(C)N1C[C@@H](C(F)(F)F)[C@H](NC(=O)c2cc(C3CC3)on2)C1 (racemic) [compound 252, (±)-trans-5-cyclopropyl-N-[1-(propan-2-yl)-4-(trifluoromethyl)pyrrolidin-3-yl]-1,2-oxazole-3-carboxamide] | > 50
11 | C[C@@H]1CN(CC2CCN(C(=O)OC(C)(C)C)CC2)C[C@H]1NC(=O)c1cc(C2CC2)on1 (racemic) [compound 255, (±)-trans-tert-butyl 4-{[3-(5-cyclopropyl-1,2-oxazole-3-amido)-4-methylpyrrolidin-1-yl]methyl}piperidine-1-carboxylate] | > 50

Continued, values first:

Row | IC50 [µM] | Structure (SMILES)
12 | > 50 | COC(=O)CN1C[C@@H](C)[C@H](NC(=O)c2cc(C3CC3)on2)C1 (racemic) [compound 220, (±)-trans-methyl 2-[3-(5-cyclopropyl-1,2-oxazole-3-amido)-4-methylpyrrolidin-1-yl]acetate]
13 | > 50 | COC(=O)CN1C[C@H](C)[C@H](NC(=O)c2cc(C3CC3)on2)C1 (racemic) [compound 221, (±)-cis-methyl 2-[3-(5-cyclopropyl-1,2-oxazole-3-amido)-4-methylpyrrolidin-1-yl]acetate]
14 | 41.6 | C[C@H]1CN(Cc2ccc3nonc3c2)C[C@H]1NC(=O)c1cc(C2CC2)on1 (racemic) [compound 222, (±)-cis-N-[1-(2,1,3-benzoxadiazol-5-ylmethyl)-4-methyl-pyrrolidin-3-yl]-5-cyclopropyl-1,2-oxazole-3-carboxamide]
15 | 4.96 | COc1cccc(CN2C[C@H](C)[C@H](NC(=O)c3cc(C4CC4)on3)C2)c1 (racemic) [compound 223, (±)-cis-5-cyclopropyl-N-[1-[(3-methoxy-phenyl)methyl]-4-methylpyrrolidin-3-yl]-1,2-oxazole-3-carboxamide]
16 | 3.63 | COc1ccc(CN2C[C@H](C)[C@H](NC(=O)c3cc(C4CC4)on3)C2)cc1 (racemic) [compound 228, (±)-cis-5-cyclopropyl-N-[1-[(4-methoxy-phenyl)methyl]-4-methylpyrrolidin-3-yl]-1,2-oxazole-3-carboxamide]
17 | 3.32 | C[C@H]1CN(Cc2ccc(N3CCCC3)cc2)C[C@H]1NC(=O)c1cc(C2CC2)on1 (racemic) [compound 229, (±)-cis-5-cyclopropyl-N-[4-methyl-1-{[4-(pyrrolidin-1-yl)phenyl]methyl}pyrrolidin-3-yl]-1,2-oxazole-3-carboxamide]
18 | 4.08 | C[C@H]1CN(Cc2ccc(N(C)C)cc2)C[C@H]1NC(=O)c1cc(C2CC2)on1 (racemic) [compound 230, (±)-cis-5-cyclopropyl-N-[1-{[4-(dimethyl-amino)phenyl]methyl}-4-methylpyrrolidin-3-yl]-1,2-oxazole-3-carboxamide]
19 | > 50 | C[C@H]1CN(Cc2c(Br)cncc2Br)C[C@H]1NC(=O)c1cc(C2CC2)on1 (racemic) [compound 231, (±)-cis-5-cyclopropyl-N-[1-[(3,5-dibromo-pyridin-4-yl)methyl]-4-methylpyrrolidin-3-yl]-1,2-oxazole-3-carboxamide]
20 | 36.1 | C[C@H]1CN(Cc2cc(Cl)cnc2Cl)C[C@H]1NC(=O)c1cc(C2CC2)on1 (racemic) [compound 232, (±)-cis-5-cyclopropyl-N-[1-[(2,5-dichloro-pyridin-3-yl)methyl]-4-methylpyrrolidin-3-yl]-1,2-oxazole-3-carboxamide]
21 | 2.27 | COc1cccc(CN2C[C@H](C)[C@H](NC(=O)c3cc(C4CC4)on3)C2)c1OC (racemic) [compound 233, (±)-cis-5-cyclopropyl-N-[1-[(2,3-dimethoxy-phenyl)methyl]-4-methylpyrrolidin-3-yl]-1,2-oxazole-3-carboxamide]
22 | > 50 | C[C@@H]1CN(CCF)C[C@H]1NC(=O)c1cc(C2CC2)on1 (racemic) [compound 253, (±)-trans-5-cyclopropyl-N-[1-(2-fluoroethyl)-4-methylpyrrolidin-3-yl]-1,2-oxazole-3-carboxamide]
23 | 5.72 | C[C@H]1CN(CCF)C[C@H]1NC(=O)c1cc(C2CC2)on1 (racemic) [compound 254, (±)-cis-5-cyclopropyl-N-[1-(2-fluoroethyl)-4-methylpyrrolidin-3-yl]-1,2-oxazole-3-carboxamide]
24 | > 50 | C[C@@H]1CN(CC2CCNCC2)C[C@H]1NC(=O)c1cc(C2CC2)on1 (racemic) [compound 256, (±)-trans-5-cyclopropyl-N-[4-methyl-1-(piperidin-4-ylmethyl)pyrrolidin-3-yl]-1,2-oxazole-3-carboxamide]
